≈ marks a conversion by molar mass, not a printed value. Calls of active or inactive are those of the source. The rule behind the calls is not given here. *1 amine or outer side, *2 acyl side, *3 side chain or, on linkers, in order; H or OH if unused. Where a SMILES comes first, the peptide text is derived from it. [ ]: non-standard residue; d: D form. X2 = CC[C@H](C)[C@H](OC(=O)[C@@H](C)[C@@H](CC)N[*:1])C(=O)[*:2]; X1 = C[C@H](N[*:1])C(=O)C(C)(C)C(=O)[*:2]; NMeY = CN[C@@H](Cc1ccc(O)cc1)C(=O)O; NMeF = CN[C@@H](Cc1ccccc1)C(=O)O; NMeI = CC[C@H](C)[C@H](NC)C(=O)O; NMeL = CN[C@@H](CC(C)C)C(=O)O; NMeV = CN[C@H](C(=O)O)C(C)C; NMeA = CN[C@@H](C)C(=O)O
Key:
Mus musculus [1] = experiment: Toxicity in mouse mammary 16/C cells xenografted C3H mouse assessed as mortality at 6.4 mg/kg, iv administered in QD 1-8 schedule; assay type: organism-based; set-up: dose 6.4 mg/kg, route intravenous; settings: in vivo
Mus musculus [2] = experiment: Toxicity in mouse Colon 38 cells xenografted BDF mouse assessed as body weight loss at nadir at 7.5 mg/kg, iv administered in QD 3-11 schedule; assay type: organism-based, MC-38; set-up: dose 7.5 mg/kg, route intravenous; settings: in vivo
[3] = Antitumor activity against mouse mammary 16/C cells xenografted C3H mouse at 3.2 mg/kg, iv administered in d 1,2 schedule; assay type: functional
A10 [4] = experiment: Induction of apoptosis in rat A10 cells assessed as apoptotic nuclei at 2 ug/ml; assay type: functional, cell-based
Mus musculus [5] = experiment: Toxicity in mouse Colon 38 cells xenografted BDF mouse assessed as body weight loss at nadir at 10.3 mg/kg, iv administered in QD 3-11 schedule; assay type: organism-based, MC-38; set-up: dose 10.3 mg/kg, route intravenous; settings: in vivo
A10 [6] = experiment: Effect on morphology in rat A10 cells assessed as formation of binuclear cells at 0.01 to 2 ug/ml; assay type: functional, cell-based
A10 [7] = experiment: Inhibition of cytokinesis in rat A10 cells at 0.01 to 2 ug/ml; assay type: functional, cell-based
A10 [8] = experiment: Effect on morphology in rat A10 cells assessed as microtubule loss at 0.01 to 2 ug/ml after 24 hrs by […]; assay type: functional, cell-based
Mus musculus [9] = experiment: Toxicity in mouse mammary 16/C cells xenografted C3H mouse assessed as body weight loss at nadir at 6.4 mg/kg, iv administered in QD 1-8 schedule; assay type: organism-based; set-up: dose 6.4 mg/kg, route intravenous; settings: in vivo
[10] = Antitumor activity against mouse mammary 16/C cells xenografted C3H mouse at 6.4 mg/kg, iv administered in QD 1-8 schedule; assay type: functional
[11] = Cytotoxicity against mouse mammary 17/Adr cells assessed as zone units at 2 ug/disk by Corbett soft agar disk diffusion assay; assay type: functional
[12] = Cytotoxicity against CFU-GM cells assessed as zone units at 2 ug/disk by Corbett soft agar disk diffusion assay; assay type: functional
Mus musculus [13] = experiment: Toxicity in mouse mammary 16/C cells xenografted C3H mouse assessed as body weight loss at nadir at 3.2 mg/kg, iv administered in d 1,2 schedule; assay type: organism-based; set-up: dose 3.2 mg/kg, route intravenous; settings: in vivo
L1210 [14] = experiment: Cytotoxicity against mouse L1210 cells assessed as zone units at 2 ug/disk by Corbett soft agar disk diffusion assay; assay type: functional
KB = experiment: Cytotoxicity against human KB cells; assay type: functional
MC-38 [15] = experiment: Antitumor activity against mouse Colon 38 cells xenografted BDF mouse at 7.5 mg/kg, iv administered in QD 3-11 schedule; assay type: functional
Mus musculus [16] = experiment: Toxicity in mouse mammary 16/C cells xenografted C3H mouse assessed as mortality at 3.2 mg/kg, iv administered in d 1,2 schedule; assay type: organism-based; set-up: dose 3.2 mg/kg, route intravenous; settings: in vivo
LoVo = experiment: Cytotoxicity against human LoVo cells; assay type: functional
MC-38 [17] = experiment: Antitumor activity against mouse Colon 38 cells xenografted BDF mouse at 10.3 mg/kg, iv administered in QD 3-11 schedule; assay type: functional
Mus musculus [18] = experiment: Necrosis in iv dosed mouse assessed as inflamed, bloody, upper GI tract with pancreatic damage and hemorrhage in lungs; assay type: organism-based, Gastrointestinal tract; settings: in vivo
MC-38 [19] = experiment: Cytotoxicity against mouse Colon 38 cells assessed as zone units at 2 ug/disk by Corbett soft agar disk diffusion assay; assay type: functional
[20] = Cytotoxicity against human H116 cells assessed as zone units at 2 ug/disk by Corbett soft agar disk diffusion assay; assay type: functional
[21] = Cytotoxicity against CFU-GM cells assessed as zone units at 12 ug/disk by Corbett soft agar disk diffusion assay; assay type: functional
MC-38 [22] = experiment: Cytotoxicity against mouse Colon 38 cells assessed as zone units at 12 ug/disk by Corbett soft agar disk diffusion assay; assay type: functional
L1210 [23] = experiment: Cytotoxicity against mouse L1210 cells assessed as zone units at 12 ug/disk by Corbett soft agar disk diffusion assay; assay type: functional
[24] = Cytotoxicity against human H116 cells assessed as zone units at 12 ug/disk by Corbett soft agar disk diffusion assay; assay type: functional
MC-38 [25] = experiment: Antitumor activity against mouse Colon 38 cells xenografted BDF mouse at 15 mg/kg, iv administered in d 3,4,7-10 schedule; assay type: functional, organism-based; set-up: dose 15 mg/kg
A10 [26] = experiment: Effect on morphology in rat A10 cells assessed as formation of binuclear cells; assay type: functional, cell-based
A10 [27] = experiment: Induction of apoptosis in rat A10 cells assessed as fragmented cell nuclei at 0.2 ug/ml; assay type: functional, cell-based
Mus musculus [28] = experiment: Toxicity in mouse Colon 38 cells xenografted BDF mouse assessed as body weight loss at nadir at 15 mg/kg, iv administered in d 3,4,7-10 schedule; assay type: organism-based, MC-38; set-up: dose 15 mg/kg, route intravenous; settings: in vivo
A10 [29] = experiment: Effect on morphology in rat A10 cells assessed as loss of cellular microfilament network at 0.2 ug/ml after 24 hrs by rhodamine-phalloidin staining; assay type: functional, cell-based
A10 [30] = experiment: Effect on morphology in rat A10 cells assessed as microtubule loss at 0.2 ug/ml after 24 hrs by […]; assay type: functional, cell-based
MC-38 [31] = experiment: Antitumor activity against mouse Colon 38 cells xenografted BDF mouse at 13 mg/kg, iv administered in QD 3-11 schedule; assay type: functional
Mus musculus [32] = experiment: Toxicity in mouse mammary 16/C cells xenografted C3H mouse assessed as mortality at 4.8 mg/kg, iv administered in d 1,2 schedule; assay type: organism-based; set-up: dose 4.8 mg/kg, route intravenous; settings: in vivo
Mus musculus [33] = experiment: Toxicity in mouse Colon 38 cells xenografted BDF mouse assessed as mortality at 13 mg/kg, iv administered in QD 3-11 schedule; assay type: organism-based, MC-38; set-up: dose 13 mg/kg, route intravenous; settings: in vivo
Mus musculus [34] = experiment: Toxicity in mouse mammary 16/C cells xenografted C3H mouse assessed as body weight loss at nadir at 11.7 mg/kg, iv administered in QD 1-9 schedule; assay type: organism-based; set-up: dose 11.7 mg/kg, route intravenous; settings: in vivo
Mus musculus [35] = experiment: Toxicity in mouse mammary 16/C cells xenografted C3H mouse assessed as mortality at 11.7 mg/kg, iv administered in QD 1-9 schedule; assay type: organism-based; set-up: dose 11.7 mg/kg, route intravenous; settings: in vivo
Mus musculus [36] = experiment: Toxicity in mouse mammary 16/C cells xenografted C3H mouse assessed as body weight loss at nadir at 4.8 mg/kg, iv administered in d 1,2 schedule; assay type: organism-based; set-up: dose 4.8 mg/kg, route intravenous; settings: in vivo
A10 [37] = experiment: Effect on morphology in rat A10 cells assessed as microtubule loss at 2 ug/ml after 24 hrs by […]; assay type: functional, cell-based
[38] = Antitumor activity against mouse mammary 16/C cells xenografted C3H mouse at 11.7 mg/kg, iv administered in QD 1-9 schedule; assay type: functional
A10 [39] = experiment: Inhibition of cytokinesis in rat A10 cells; assay type: functional, cell-based
A10 [40] = experiment: Effect on morphology in rat A10 cells assessed as loss of cellular microfilament network at 2 ug/ml after 24 hrs by rhodamine-phalloidin staining; assay type: functional, cell-based
Mus musculus [41] = experiment: Toxicity in mouse Colon 38 cells xenografted BDF mouse assessed as body weight loss at nadir at 13 mg/kg, iv administered in QD 3-11 schedule; assay type: organism-based, MC-38; set-up: dose 13 mg/kg, route intravenous; settings: in vivo
Mus musculus [42] = experiment: Antitumor activity against mouse mammary 16/C cells xenografted C3H mouse at 4.8 mg/kg, iv administered in d 1,2 schedule; assay type: functional, organism-based; set-up: dose 4.8 mg/kg

## CC[C@H](C)[C@@H]1OC(=O)[C@@H](C)[C@@H](CC)NC(=O)[C@H](C)N(C)C(=O)C(C)(C)C(=O)[C@H](C)NC(=O)[C@H](Cc2ccccc2)N(C)C(=O)[C@H](C(C)C)N(C)C(=O)CNC(=O)[C@H](CC(C)C)N(C)C(=O)CNC1=O [DOLASTATIN 12] (cyclo(G[NMeL]G[NMeV][NMeF][X1][NMeA][X2]))
Mus musculus [1]
  Activity: Non-toxic
Mus musculus [2]
  Activity: -8%
[3]
  T/C: 68%
A10 [4]
  Activity: Active
Mus musculus [5]
  Activity: -15%
A10 [6]
  Activity: Active
A10 [7]
  Activity: Active
A10 [8]
  Activity: inactive
Mus musculus [9]
  Activity: -3%
[10]
  T/C: 86%
[11]
  Activity: 270 Zone units
[12]
  Activity: 500 Zone units
Mus musculus [13]
  Activity: -13%
L1210 [14]
  Activity: 420 Zone units
KB
  MIC: < 0.05 µg/mL
MC-38 [15]
  T/C: 92%
Mus musculus [16]
  Activity: Toxic
LoVo
  MIC: 0.08 µg/mL (≈ 0.0825 µM)
MC-38 [17]
  T/C: 41%
Mus musculus [18]
  Activity: Toxic
MC-38 [19]
  Activity: 630 Zone units
[20]
  Activity: 480 Zone units

## CC[C@H](C)[C@@H]1OC(=O)[C@@H](C)[C@@H](CC)NC(=O)[C@H](C)NC(=O)C(C)(C)C(=O)[C@H](C)NC(=O)[C@H](Cc2ccc(OC)cc2)N(C)C(=O)[C@H](C(C)C)N(C)C(=O)CNC(=O)[C@H]([C@@H](C)CC)N(C)C(=O)CNC1=O [MAJUSCULAMIDE] (cyclo(A[X2]G[NMeI]G[NMeV][NMeY](Me)[X1]))
[21]
  Activity: 450 Zone units
MC-38 [22]
  Activity: 730 Zone units
L1210 [23]
  Activity: 500 Zone units
[24]
  Activity: 710 Zone units

## CC[C@H](C)[C@@H]1OC(=O)[C@@H](C)[C@@H](CC)NC(=O)[C@H](C)N(C)C(=O)C(C)(C)C(=O)[C@H](C)NC(=O)[C@H](Cc2ccc(OC)cc2)N(C)C(=O)[C@H](C(C)C)N(C)C(=O)CNC(=O)[C@H](CC(C)C)N(C)C(=O)CNC1=O [epilyngbyastatin 1] (cyclo(G[NMeL]G[NMeV][NMeY](Me)[X1][NMeA][X2]))
MC-38 [25]
  Activity: Toxic
A10 [4]
  Activity: Active
A10 [26]
  Activity: inactive
A10 [27]
  Activity: inactive
Mus musculus [28]
  Activity: -8%
A10 [29]
  Activity: Active
A10 [30]
  Activity: inactive
MC-38 [31]
  T/C: 93%
Mus musculus [32]
  Activity: Toxic
Mus musculus [33]
  Activity: Non-toxic
Mus musculus [34]
  Activity: -4%
Mus musculus [35]
  Activity: Non-toxic
Mus musculus [36]
  Activity: Toxic
[11]
  Activity: 650 Zone units
[12]
  Activity: 570 Zone units
L1210 [14]
  Activity: 450 Zone units
KB
  MIC: 0.1 µg/mL (≈ 0.1 µM)
A10 [37]
  Activity: inactive
[38]
  T/C: 61%
A10 [39]
  Activity: inactive
A10 [40]
  Activity: Active
LoVo
  MIC: 0.5 µg/mL (≈ 0.5 µM)
Mus musculus [18]
  Activity: Toxic
MC-38 [19]
  Activity: 670 Zone units
Mus musculus [41]
  Activity: -3%
[20]
  Activity: 580 Zone units
Mus musculus [42]
  Activity: Toxic

Reference: ChEMBL document CHEMBL1150960, “Isolation, structure determination, and biological activity of dolastatin 12 and lyngbyastatin 1 from Lyngbya majuscula/Schizothrix calcicola cyanobacterial assemblages” (J Nat Prod, 1998)
